In patent US11505528B2, “Inhibitors of microbially induced amyloid” (Axial Therapeutics, Inc., priority 2017, dated 2022):
Entries after “also recorded” stand apart in the source; their conditions may differ. Read-outs that look alike come from different tables or passages of the source.

Tests used:
[1] = target: T1, α-synuclein seeded by E. coli CsgA (Homo sapiens, UniProt P37840); experiment: Thioflavin T cell-free assay of CsgA-seeded α-synuclein aggregation; type: biochemical
T1 construct: the full-length gene for untagged human α-synuclein was inserted; made in house; host or cells: α-synuclein: E. coli BL21 (DE3); CsgA: E. coli NEB 3016 slyD::kan

human α-synuclein = target: T2, human α-synuclein (Homo sapiens, UniProt P37840); experiment: Thioflavin T cell-free assay of α-synuclein aggregation; type: biochemical; conditions: α-synuclein 50 μM, compounds at 20-50 μM, data from 36 hours; for Inhibition of Aggregation, αSyn: ThT fluorescence, negative = potentiation
T2 construct: the full-length gene for untagged human α-synuclein was inserted; made in house; host or cells: E. coli BL21 (DE3)

E. coli CsgA = target: T3, E. coli CsgA (Escherichia coli, UniProt P28307); experiment: Thioflavin T cell-free assay of CsgA aggregation; type: biochemical
T3 construct: 6xHis (C); made in house; host or cells: E. coli NEB 3016 slyD::kan

αSyn aggregates = αSyn aggregates in brain of ASO mice mono-colonized with WT E. coli, EGCG in drinking water; type: in vivo
[2] = test system: Thy1-αSyn mice (ASO) mono-colonized with WT E. coli; experiment: Motor function of germ-free Thy1-αSyn (ASO) mice mono-colonized with WT E. coli, EGCG in drinking water; type: in vivo
[3] = read-out: Inhibition of Aggregation, CsgA-seeded αSyn
[4] = read-out: Inhibition of Aggregation, CsgA-seeded αSyn (compound activity range)
[5] = read-out: Inhibition of Aggregation, CsgA
[6] = read-out: Inhibition of Aggregation, CsgA (compound activity range)
[7] = 15-16 weeks of age, EGCG ad lib in drinking water, vs vehicle treated control

T3 sequence (P28307 23-151): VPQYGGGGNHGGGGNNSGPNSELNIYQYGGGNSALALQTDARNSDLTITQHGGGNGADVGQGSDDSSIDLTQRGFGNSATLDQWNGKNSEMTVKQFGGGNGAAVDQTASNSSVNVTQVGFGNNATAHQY

SMILES | inhibition at 50 µM [1, 3] [%] | inhibition at 50 µM [1, 4] [%] | Inhibition of Aggregation, αSyn (human α-synuclein) [%] | Inhibition of Aggregation, αSyn (compound activity range) (human α-synuclein) | inhibition at 20 µM (E. coli CsgA; [5]) [%] | inhibition at 20 µM (E. coli CsgA; [6]) [%] | αSyn aggregation in the striatum and midbrain (αSyn aggregates; EGCG treatment) | Proteinase K resistant αSyn aggregates in the substantia nigra (αSyn aggregates; immunofluorescence microscopy, EGCG-treated vs vehicle/untreated controls) | beam traversal time (time to cross) [2, 7] | hindlimb clasping score [2, 7] | nasal adhesive removal time (time to remove) [2, 7] | pole descent time (time to descent) [2, 7] | wire hang test (time to fall) [2, 7] | progressive motor deficits exacerbated by E. coli ([2]; assessment of motor performance, EGCG treatment)
COc1cc(NC(=O)c2c(N)sc3c2CCCC3)cc(OC)c1OC [Compound 14, 2-amino-N-(3,4,5-trimethoxyphenyl)-4,5,6,7-tetrahydrobenzo[b]thiophene-3-carboxamide] | 74 | > 60 | 3 | (−) ((−) is between −10% to 10% inhibition) | – | – | – | – | – | – | – | – | – | –
COc1cc(OC)c2c(=O)c(C(=O)Oc3cc(OC)c(OC)c(OC)c3)c[nH]c2c1 [Compound 24, 3,4,5-trimethoxyphenyl 5,7-dimethoxy-4-oxo-1,4-dihydroquinoline-3-carboxylate] | -27 | < -10 | – | – | -1 | -10 to 10 | – | – | – | – | – | – | – | –
O=C(Nc1sc2c(c1C(=O)Nc1cc(O)cc(O)c1)CCCC2)c1cc(O)c(O)c(O)c1 [Compound 6, N-(3,5-dihydroxyphenyl)-2-(3,4,5-trihydroxybenzamido)-4,5,6,7-tetrahydrobenzo[b]thiophene-3-carboxamide] | > 90 | > 60 | 36 | (++) ((++) is between 30% to 60% inhibition) | 40 | 30 to 60 | – | – | – | – | – | – | – | –
O=C(Nc1ccccc1)c1c[nH]c2cc(O)cc(O)c2c1=O [Compound 27, 5,7-dihydroxy-4-oxo-N-phenyl-1,4-dihydroquinoline-3-carboxamide] | 79 | > 60 | 49 | (++) ((++) is between 30% to 60% inhibition) | 44 | 30 to 60 | – | – | – | – | – | – | – | –
COc1cc(OC(=O)c2c[nH]c3cc(OC)c(OC)c(OC)c3c2=O)cc(OC)c1OC [Compound 23, 3,4,5-trimethoxyphenyl 5,6,7-trimethoxy-4-oxo-1,4-dihydroquinoline-3-carboxylate] | -22 | < -10 | – | – | -4 | -10 to 10 | – | – | – | – | – | – | – | –
O=C(Nc1cc(O)c(O)c(O)c1)c1c(-c2cc(O)c(O)c(O)c2)[nH]c2cc(O)c(O)c(O)c2c1=O [Compound 44, 5,6,7-trihydroxy-4-oxo-N,2-bis(3,4,5-trihydroxyphenyl)-1,4-dihydroquinoline-3-carboxamide] | > 90 | > 60 | 98 | (+++) ((+++) is greater than 60% inhibition) | 64 | > 60 | – | – | – | – | – | – | – | –
CN(C(=O)c1c[nH]c2cc(O)cc(O)c2c1=O)c1cc(O)c(O)c(O)c1 [Compound 42, 5,7-dihydroxy-N-methyl-4-oxo-N-(3,4,5-trihydroxyphenyl)-1,4-dihydroquinoline-3-carboxamide] | > 90 | > 60 | 98 | (+++) ((+++) is greater than 60% inhibition) | 114 | > 60 | – | – | – | – | – | – | – | –
COc1cc(NC(=O)c2c[nH]c3cc(OC)c(OC)c(OC)c3c2=O)cc(OC)c1OC [Compound 19, 5,6,7-trimethoxy-4-oxo-N-(3,4,5-trimethoxyphenyl)-1,4-dihydroquinoline-3-carboxamide] | 14 | 10 to 30 | 29 | (+) ((+) is between 10% to 30% inhibition) | 18 | 10 to 30 | – | – | – | – | – | – | – | –
O=C(Nc1cccc(O)c1)c1c[nH]c2cc(O)c(O)c(O)c2c1=O [Compound 32, 5,6,7-trihydroxy-N-(3-hydroxyphenyl)-4-oxo-1,4-dihydroquinoline-3-carboxamide] | > 90 | > 60 | 48 | (++) ((++) is between 30% to 60% inhibition) | 53 | 30 to 60 | – | – | – | – | – | – | – | –
COc1cc(OC)c2c(=O)c(C(=O)Nc3cccc(O)c3)c[nH]c2c1 [Compound 26, N-(3-hydroxyphenyl)-5,7-dimethoxy-4-oxo-1,4-dihydroquinoline-3-carboxamide] | < -50 | < -10 | 24 | (+) ((+) is between 10% to 30% inhibition) | 8 | -10 to 10 | – | – | – | – | – | – | – | –
O=C(Nc1cc(O)c(O)c(O)c1)c1c[nH]c2cc(O)c(O)c(O)c2c1=O [Compound 20, 5,6,7-trihydroxy-4-oxo-N-(3,4,5-trihydroxyphenyl)-1,4-dihydroquinoline-3-carboxamide] | 11 | 10 to 30 | – | – | 61 | > 60 | – | – | – | – | – | – | – | –
O=C(O[C@@H]1Cc2c(O)cc(O)cc2O[C@@H]1c1cc(O)c(O)c(O)c1)c1cc(O)c(O)c(O)c1 [EGCG, epigallocatechin gallate] | – | – | – | – | – | – | preventing | lower; also recorded: Fewer | lower | lower | lower | lower | higher | dampens
COc1cc2[nH]cc(C(=O)Nc3cccc(O)c3)c(=O)c2c(OC)c1OC [Compound 28, N-(3-hydroxyphenyl)-5,6,7-trimethoxy-4-oxo-1,4-dihydroquinoline-3-carboxamide] | < -50 | < -10 | 20 | (+) ((+) is between 10% to 30% inhibition) | -6 | -10 to 10 | – | – | – | – | – | – | – | –
O=C(Nc1cccc(O)c1)c1c[nH]c2cc(O)cc(O)c2c1=O [Compound 48, 5,7-dihydroxy-N-(3-hydroxyphenyl)-4-oxo-1,4-dihydroquinoline-3-carboxamide] | > 90 | > 60 | 37 | (++) ((++) is between 30% to 60% inhibition) | -2 | -10 to 10 | – | – | – | – | – | – | – | –
O=C(Nc1sc2c(c1C(=O)Nc1cc(O)c(O)c(O)c1)CCCC2)c1cc(O)c(O)c(O)c1 [Compound 2, 2-(3,4,5-trihydroxybenzamido)-N-(3,4,5-trihydroxyphenyl)-4,5,6,7-tetrahydrobenzo[b]thiophene-3-carboxamide] | 63 | > 60 | 93 | (+++) ((+++) is greater than 60% inhibition) | 45 | 30 to 60 | – | – | – | – | – | – | – | –
COc1cc(OC)c2c(=O)c(C(=O)Nc3cc(OC)c(OC)c(OC)c3)c[nH]c2c1 [Compound 21, 5,7-dimethoxy-4-oxo-N-(3,4,5-trimethoxyphenyl)-1,4-dihydroquinoline-3-carboxamide] | – | – | −1 | (−) ((−) is between −10% to 10% inhibition) | 4 | -10 to 10 | – | – | – | – | – | – | – | –
COc1cc(OC)c2c(=O)c(C(=O)Nc3ccccc3)c[nH]c2c1 [Compound 25, 5,7-dimethoxy-4-oxo-N-phenyl-1,4-dihydroquinoline-3-carboxamide] | – | – | 17 | (+) ((+) is between 10% to 30% inhibition) | -150 | < -10 | – | – | – | – | – | – | – | –
